# Patent publication US20200288710A1, “SUBSTITUTED SULPHONAMIDES FOR CONTROLLING ANIMAL PESTS” (BAYER CROPSCIENCE AKTIENGESELLSCHAFT, priority 2016, published 2020)
# Columns and labels:
# Type in all cases: in vivo
# Meloidogyne incognita = Meloidogyne incognita test; details: 336 h, lettuce, after 14 days, read-out: nematicidal efficacy (formation of galls)
# In short: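 Active compound in acetone, diluted with water, added to sand-filled vessels with M. incognita eggs/larvae and lettuce seeds. After 14 days, efficacy scored by root gall formation: 100% = no galls, 0% = galls equal to untreated control.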
# Myzus persicae [1] = assay: Myzus persicae spray test (Chinese cabbage leaf discs); details: foliar, 120 h, 500 g/ha, after 5-6 days, read-out: efficacy
# In short: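 Chinese cabbage leaf discs infested with all stages of green peach aphid were sprayed with compound formulated in acetone/DMF and emulsifier-containing water. Efficacy in % was scored after 5-6 days, with 100% meaning all aphids killed and 0% none killed.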
# Myzus persicae [2] = assay: Myzus persicae oral test; details: 120 h, 20 ppm, oral uptake, after 5 days, read-out: efficacy
# In short: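 Compound dissolved in acetone, diluted in water, then mixed 50:150 μl with IPL41 insect medium (33%+15% sugar). Mixed-population green peach aphids feed through a parafilm seal on the solution; mortality scored as % efficacy after 5 days (100% = all killed).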
Structure (SMILES),pest or weed control at 20 ppm (Meloidogyne incognita),pest or weed control at 500 g/ha (Myzus persicae [1]),pest or weed control at 20 ppm (Myzus persicae [2])
CCc1[nH]c(-c2ccc(F)cc2F)nc1C(=O)NS(=O)(=O)C(C)C [Example 123],90%,90%,
CC(C)S(=O)(=O)NC(=O)c1cn(C)c(-c2c(F)cccc2Cl)n1 [Example 149],90%,90%,
Cn1cc(C(=O)NS(=O)(=O)c2cccc(F)c2Cl)nc1-c1c(F)cccc1F [Example 321],90%,100%,
Cn1cc(C(=O)NS(=O)(=O)c2cc(Cl)sc2Cl)nc1-c1c(F)cccc1F [Example 356],90%,90%,
Cn1cc(C(=O)NS(=O)(=O)c2cccc(Cl)c2)nc1-c1c(F)cc(F)cc1F [Example 8],100%,90%,
Cn1cc(C(=O)NS(=O)(=O)c2ccsc2)nc1-c1c(F)cccc1F [Example 357],90%,90%,
COc1ccc(S(=O)(=O)NC(=O)c2cn(C)c(-c3c(F)cccc3F)n2)cc1 [Example 47],100%,90%,
Cn1cc(C(=O)NS(=O)(=O)c2ccc(C(F)(F)F)cc2Cl)nc1-c1c(F)cccc1F [Example 441],100%,90%,
CCc1c(C(=O)NS(=O)(=O)c2ccccc2Cl)nc(-c2c(F)cccc2F)n1C [Example 197],100%,90%,
Cn1cc(C(=O)NS(=O)(=O)c2ccc(C(F)(F)F)cc2Br)nc1-c1c(F)cccc1F [Example 442],90%,90%,
Cc1ccccc1S(=O)(=O)NC(=O)c1cc(C)n(-c2c(F)cccc2F)n1 [Example 139],90%,90%,
Cn1cc(C(=O)NS(=O)(=O)c2ccccc2)nc1-c1c(F)cccc1F [Example 48],90%,90%,
CC(C)S(=O)(=O)NC(=O)c1cn(C)c(-c2ccccc2Cl)n1 [Example 193],90%,100%,
Cc1ccccc1S(=O)(=O)NC(=O)c1cn(C)c(-c2cccc3c2OC(F)(F)O3)n1 [Example 542],100%,90%,
CCn1c(C(=O)NS(=O)(=O)c2ccccc2Cl)nc(-c2c(F)cccc2F)c1C [Example 414],100%,,100%
CCn1cc(C(=O)NS(=O)(=O)c2ccccc2C(F)(F)F)nc1-c1ccccc1Cl [Example 21],90%,,100%
CCc1cccc(OC)c1S(=O)(=O)NC(=O)c1cn(C)c(-c2c(F)cccc2F)n1 [Example 200],100%,100%,
Cc1ccccc1S(=O)(=O)NC(=O)c1cn(C)c(-c2ccccc2[N+](=O)[O-])n1 [Example 525],100%,,100%
CCc1ccccc1-c1nc(C(=O)NS(=O)(=O)c2ccccc2OC)cn1C [Example 498],90%,,100%
CCc1[nH]c(-c2ccc(Cl)cc2)nc1C(=O)NS(=O)(=O)c1ccccc1C [Example 590],90%,,100%
Cn1cc(C(=O)NS(=O)(=O)Cc2cccc(Cl)c2)nc1-c1ccccc1Cl [Example 61],100%,,100%
CCn1cc(C(=O)NS(=O)(=O)CC(F)(F)F)nc1-c1ccccc1Cl [Example 77],90%,,90%

Structure (SMILES),pest or weed control at 20 ppm (Meloidogyne incognita),pest or weed control at 500 g/ha (Myzus persicae [1]),pest or weed control at 20 ppm (Myzus persicae [2])
CC(C)c1cccc(-c2nc(C(=O)NS(=O)(=O)c3ccccc3Br)cn2C)c1 [Example 330],90%,,90%
Cc1ccccc1-c1nc(C(=O)NS(=O)(=O)c2ccc(Cl)cc2)cn1C [Example 49],100%,,100%
Cn1cc(C(=O)NS(=O)(=O)c2ccc(Cl)cc2)nc1-c1ccccc1Cl [Example 230],100%,100%,
COCCS(=O)(=O)NC(=O)c1cn(C)c(-c2c(F)cccc2F)n1 [Example 141],90%,,90%
Cc1[nH]c(-c2c(F)cccc2F)nc1C(=O)NS(=O)(=O)c1ccccc1Cl [Example 192],90%,,100%
CCc1[nH]c(-c2cccc(Br)c2)nc1C(=O)NS(=O)(=O)c1ccccc1C [Example 134],90%,,100%
CCOc1c(Cl)cccc1S(=O)(=O)NC(=O)c1cn(C)c(-c2c(F)cccc2F)n1 [Example 314],90%,,100%
COc1ccc(Cl)c(S(=O)(=O)NC(=O)c2c[nH]c(-c3c(F)cccc3F)n2)c1 [Example 411],90%,,100%
CC(C)Sc1cccc(Cl)c1S(=O)(=O)NC(=O)c1cn(C)c(-c2c(F)cccc2F)n1 [Example 386],90%,,100%
Cn1cc(C(=O)NS(=O)(=O)c2ccc(Br)s2)nc1-c1c(F)cccc1F [Example 353],90%,,90%
CC(C)CS(=O)(=O)NC(=O)c1cn(C)c(-c2c(F)cccc2Cl)n1 [Example 325],90%,,100%
Cc1[nH]c(C(=O)NS(=O)(=O)C(C)C)nc1-c1ccccc1Cl [Example 202],90%,,100%
Cc1[nH]c(-c2ccccc2Cl)nc1C(=O)NS(=O)(=O)C(C)C [Example 625],100%,,90%
Cc1ccccc1S(=O)(=O)NC(=O)c1cc(-c2ncccc2Cl)n(-c2ccccc2Cl)n1 [Example 265],100%,,100%
Cn1cc(C(=O)NS(=O)(=O)c2ccccc2Cl)nc1-c1ccccc1-c1ccccc1 [Example 532],90%,,100%
Cn1cc(C(=O)NS(=O)(=O)Cc2ccc(Cl)cc2)nc1-c1ccccc1Cl [Example 63],100%,,100%
Cc1cccc(C)c1-c1nc(C(=O)NS(=O)(=O)c2ccccc2Cl)cn1C [Example 477],90%,,90%
CCn1cc(C(=O)NS(=O)(=O)c2cccc(Cl)c2)nc1-c1ccccc1Cl [Example 40],100%,,100%
COc1cc(C(=O)NS(=O)(=O)c2ccccc2C)nn1-c1ccccc1Cl [Example 276],100%,,100%
CCn1c(C(=O)NS(=O)(=O)c2ccccc2OC)nc(-c2c(F)cccc2F)c1C [Example 416],90%,,90%
CCc1c(C(=O)NS(=O)(=O)c2ccccc2C)nc(-c2c(F)cccc2F)n1C [Example 199],90%,,100%
Cc1[nH]c(-c2cccc(Cl)c2)nc1C(=O)NS(=O)(=O)c1ccccc1Cl [Example 233],90%,,100%
